In PubChem BioAssay (NCI):
Where “and” joins values, the source holds several entries; their conditions need not be identical. Equal values may be shown once.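 Growth conditions: 96-well plates. Treatment: test compound, 48 hours, 5 concentrations. Analysis: linear interpolation between bracketing concentrations; unreached endpoints set to highest concentration. Abbreviation: GI50, concentration required for 50% inhibition of growth. TGI marks complete inhibition of growth.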

Columns and labels:
Experiment in all cases: growth of human tumour cells (NCI), 48 h
NCI-H23 lung = tested on: NCI-H23 lung
OVCAR-5 ovarian = tested on: OVCAR-5 ovarian
U251 CNS = tested on: U251 CNS
COLO 205 colon = tested on: COLO 205 colon
BT-549 breast = tested on: BT-549 breast
SR leukemia = tested on: SR leukemia
RPMI-8226 leukemia = tested on: RPMI-8226 leukemia
RXF 393 renal = tested on: RXF 393 renal
SN12C renal = tested on: SN12C renal
MALME-3M melanoma = tested on: MALME-3M melanoma
EKVX NSCLC = tested on: EKVX NSCLC
DU-145 prostate = tested on: DU-145 prostate

Structure (SMILES) | TGI (NCI-H23 lung) | TGI (OVCAR-5 ovarian) | TGI (U251 CNS) | TGI (COLO 205 colon) | TGI (BT-549 breast) | TGI (SR leukemia) | TGI (RPMI-8226 leukemia) | TGI (RXF 393 renal) | TGI (SN12C renal) | TGI (MALME-3M melanoma) | TGI (EKVX NSCLC) | TGI (DU-145 prostate) | GI50 (U251 CNS) | GI50 (COLO 205 colon) | GI50 (SR leukemia) | GI50 (RPMI-8226 leukemia)
CCOC(=O)CSc1nnc2cc(CN3CCCC3)c(-c3ccc(Cl)cc3)nn12 | > 100 µM | > 100 µM | > 100 µM | > 100 µM | > 100 µM | > 100 µM | > 100 µM | > 100 µM | > 100 µM | > 100 µM | > 100 µM | > 100 µM |  |  |  | 
O=S(=O)(O)c1ccc(N=Nc2c(O)ccc3cc(Br)ccc23)cc1 | > 100 µM | > 100 µM | > 100 µM | > 100 µM | > 100 µM | > 100 µM | > 100 µM | > 100 µM | > 100 µM | > 100 µM | > 100 µM | > 100 µM |  |  |  | 
N#Cc1c(N)[nH]c(=S)c(C#N)c1-c1ccccc1 | > 100 µM | > 100 µM | > 100 µM |  | > 100 µM | > 100 µM | > 100 µM | > 100 µM | > 100 µM | > 100 µM | > 100 µM | > 100 µM |  |  |  | 
CCOc1ccc(N/C(Cl)=C(Cl)\C(=C(\Nc2ccc(OCC)cc2)n2nnc3ccccc32)[N+](=O)[O-])cc1 | 22.3 µM | 27 µM | 22 µM | 25.4 µM | 14 µM | 5.26 µM | > 30.5 µM | 5.39 µM | 23.3 µM | 5.49 µM | 31.3 µM | 46.8 µM |  |  |  | 
CCOC(=O)C(C)NC(=O)C(C)NC(=O)C(C)NC(=O)C(C)NC(=O)C(C)NC(=O)OCc1ccccc1 (centres undefined) | > 100 µM | > 100 µM | > 100 µM | > 100 µM | > 100 µM | > 100 µM | > 100 µM | > 100 µM | > 100 µM | > 100 µM | > 100 µM | > 100 µM |  |  |  | 
O=c1ccn(C2OC(CO)C(O)C2[Se]c2ccccc2)c(=O)[nH]1 (centres undefined) | > 100 µM | > 100 µM | > 100 µM | > 100 µM | > 100 µM | > 100 µM |  |  | > 100 µM | > 100 µM | > 100 µM | > 100 µM |  |  |  | 
O=C(Nc1ccccc1)N(C1=NCC(CI)S1)c1ccc(F)cc1F (centres undefined) | > 100 µM | > 100 µM | > 100 µM | > 100 µM | 89.4 µM | 65.7 µM | > 100 µM | > 100 µM | > 100 µM | > 100 µM | > 100 µM | > 100 µM |  |  |  | 
COc1cc2cccc(N)c2cc1OC | > 100 µM | > 100 µM | > 100 µM | > 100 µM | > 92.6 µM | > 100 µM | > 100 µM | > 100 µM | > 100 µM | > 100 µM | > 100 µM | > 100 µM |  |  |  | 
COc1ccc2[nH]cc([C@@H]3C4CCC(C4)[C@H]3NCc3cccc(CN[C@H]4C5CCC(C5)[C@@H]4c4c[nH]c5ccc(OC)cc45)c3)c2c1 | 3 µM and 2.93 µM | 3.12 µM and 2.88 µM | 0.329 µM and 0.324 µM | 1.2 µM and 0.427 µM | 3.16 µM and 3.18 µM | 0.78 µM and 1 µM | 1.65 µM and 1.26 µM | 3.1 µM and 2.79 µM | 3.1 µM and 2.93 µM | 3.32 µM and 3.31 µM | 2.91 µM and 2.89 µM | 3.31 µM and 3.08 µM | 0.168 µM and 0.17 µM | 0.206 µM | 0.28 µM | 0.66 µM
